Data on 16 molecules can be found in patent US20190125702A1, “Methods and Compositions for the Treatment of Demyelinating Disorders” (Vitality Biopharma, Inc., priority 2016, published 2019).

“Also recorded” adds a separate entry of the source. Some results are limits rather than exact numbers.

The test system of assay [1] is E18 rat embryonic cortical co-cultures (MBP fiber length/Olig2 nuclei). Kind of assay: embryonic cortical cell co-culture myelination assay. In kind it is cell-based. Particulars: for EC50: Rattus norvegicus, 192 h, cortical myelination assay, eight days treatment, N >= 2; for myelination in the cortical myelination assay (in words): compound added DIV5, eight days, live axons. An excerpt: Embryonic Cortical Culture Methods: The dissection of E18 rat (Charles River, Wilmington, Mass., USA) cortex is similar to that described previously, [32], [33] with some modifications. Briefly whole cortices from three embryos were collected in a petri dish containing HBSS. After carefully removing the meninges, the tissue was divided into cortical hemispheres, dissected and the non-cortical structures were removed. Cortical tissue was then digested in 7 U/ml papain dissolved in HBSS with 500 U/ml DNase I, and incubated for 30 minutes at 35° C. The enzymatic reaction was terminated with DMEM containing 10% FBS. The tissue was allowed to settle, supernatant was removed and tissue was triturated with a flame-polished glass Pasteur pipette in DMEM/10% FBS, 250 U/ml DNAse I until the tissue was completely dispersed. The dissociated cell suspension was centrifuged at 200×g for 5 minutes and supernatant replaced with plating medium (NB medium with 1× N21 supplement and 2 mM L-glutamine and 1% penicillin-streptomycin). […] Isolated cells were seeded onto 96-well plates pre-coated with poly-D-lysine (10 μg/m1) and laminin (2 ␣/ml) at a density of 20,000 cells/well ([…]). Neurons were allowed to adhere, recover, mature and extend axons for three days. On the fourth day, the plating medium was diluted with an equivolume of myelination medium (MyM), as described in Watkins et al., 2008 [9] with minor modifications (see results). The following day, two-thirds of the medium was replaced with fresh MyM and test compound. The day after establishing the primary culture was defined as day 1 in vitro (DIV1).
Immunofluorescence Staining and Imaging: At the experimental end point, medium was removed leaving 50 μl/well using an ELX405 microplate washer (BioTek, Winooski, Vt., USA). Cells were then fixed for 14 min with paraformaldehyde solution to a final concentration of 4%. Following fixation, plates were washed with 1 ml PBS leaving 50 μl/well using the microplate washer. Cells were then blocked in blocking buffer (10% normal goat serum, 0.1% Triton X-100, antibody buffer (150 mM NaCl, 50 mM Tris Base, 1% BSA, 100 mM L-lysine, 0.004% sodium azide, pH 7.4), and stained with mouse anti-rat MBP antibody and anti-rabbit Olig2 diluted in blocking buffer overnight at 4° C. The cells were washed and incubated with secondary antibodies, and DAPI, 0.3 μM for 1 h at room temperature. After a final wash, 100 μl of PBS was added to each well and plates imaged. Images were captured with a Nikon Eclipse TE-2000-U microscope, Zyla cMOS megapixel camera (ANDOR Technology, Belfast, UK), fitted with an automated stage controlled by NIS Elements AR software 4.0 (Melville, N.Y., USA). An air 10× lens was used to capture four images per well with 16 bit resolution, 2560×2160 pixels. Images for each assay run were captured using identical camera settings. Images were exported as TIFF files for analysis and quantification.
Image Quantification: TIFF files were analyzed using a custom algorithm created with IN Cell Investigator Developer Toolbox (GE Health Sciences, Piscataway, N.J., USA). For each well, four images were analyzed and the data from the duplicate well combined and averaged (total of eight images per test condition). The extent of OL differentiation was defined by the total threshold-selected area of MBP staining×MBP fluorescence intensity in this area divided by the total number of OLs (identified by Olig2 nuclear staining). We referred to this as the “MBP score” or “OL differentiation”. Earlier publications have characterized in vitro myelination as contiguous segments of MBP staining co-localizing with axons, representing the contact and ensheathment of axons with the myelin membrane generated by OLs.

The subject of assay [2] is purified OPCs. The note with it: lead compounds of published studies [2],[3],[4]; cited from earlier work.
Assay [3] concerns purified OPCs from P7 Sprague-Dawley rat pups. Kind of assay: acute oligodendrocyte differentiation assay with acutely purified OPCs. Particulars: 4 days culture, MBP staining intensity. In kind it is cell-based. On the procedure: Acute Oligodendrocyte Differentiation Assay: OPCs from P7 Sprague-Dawley rat pups were purified by immunopanning and cultured as described. OPCs were plated at 5000 cells/well into pDL-Laminin coated 96-well TC plate wells and centrifuged at 200×g to facilitate cell attachment, survival, and assure even distribution of OPCs. Plated OPCs were pre-incubated for 1-2 hours at 37° C. in 10% CO2 incubator, followed by addition of test compounds in quadruplicate. Controls were added in eight replicate wells, negative control=0.1% DMSO final concentration; positive control=40 ng/ml T3. The day of OPC plating was considered DIV0. On DIV4, cells were fixed, immunostained, and imaged as described below. Minor modifications include blocking cells with 10% normal goat serum (NGS)/0.4% Triton X-100 and staining overnight at 4° C. with rat anti-MBP antibodies diluted in 10% NGS/0.08% Triton X-100. OL differentiation was quantified by IN Cell Developer Toolbox image analysis software which calculated the MBP staining intensity of two images per well. The extent of OL differentiation was defined by the total threshold-selected area of MBP staining×MBP fluorescence intensity in this area divided by the total number of OLs (identified by DAPI nuclear staining).

As a reminder, the EC50 is the concentration needed to bring the measured effect to its halfway point. Regarding `CC(=O)O[C@@]12CO[C@@H]1C[C@H](O)[C@@]1(C)C(=O)[C@H](O)C3=C(C)[C@@H](OC(=O)[C@H](O)[C@@H](NC(=O)OC(C)(C)C)c4ccccc4)C[C@@](O)([C@@H](OC(=O)c4ccccc4)[C@H]21)C3(C)C` [Docetaxel], the response in assay [1] was half-maximal at 0.1 µM (EC50).
For `O=S(=O)(NC1CCC(c2cc(F)ccc2F)(S(=O)(=O)c2ccc(Cl)cc2)CC1)C(F)(F)F` (stereo not shown) [MRK 560], the midpoint of the response in assay [1], the EC50, lay at 0.082 µM.
As to `CN(Cc1cnc2nc(N)nc(N)c2n1)c1ccc(C(=O)N[C@@H](CCC(=O)O)C(=O)O)cc1` [Methotrexate], the “Olig2+ nuclei expression (in words)” value in assay [1] (NCC library screen) is “very low overall Olig2+ nuclei expression”. The molecule further came in with an EC50 in assay [1] of 0.1 µM.
In turn, `NC(=O)N1c2ccccc2CC(=O)c2ccccc21` [Oxcarbazepine] returned an EC50 in assay [1] of 14.7 µM.
On to `Clc1ccc(COC(Cn2ccnc2)c2ccc(Cl)cc2Cl)c(Cl)c1` (stereo not shown) [miconazole], for which the “myelination in the cortical myelination assay (in words)” value (from here on “myelination … (in words)”) in assay [1] is on record as “no effect on myelination”. Moreover, in assay [2], the “OL differentiation in cultures of purified OPCs (published screens)” value (shortened to “OL differentiation in cultures”) is listed as “facilitate OL differentiation”.
Consider `NC(=O)[C@@H](CCC(F)(F)F)N(Cc1ccc(-c2ncon2)cc1F)S(=O)(=O)c1ccc(Cl)cc1` [BMS 708, 163], for which the EC50 in assay [1] was determined as 0.067 µM.
For the molecule `CN1CCC[C@@H]1CCO[C@](C)(c1ccccc1)c1ccc(Cl)cc1` [clemastine], the “myelination … (in words)” value in assay [1] is on record as “little to no activity; also recorded: no effect on myelination; also recorded: did not promote myelination”. Besides, the “OL differentiation of purified OPCs (in words)” value in assay [3] is recorded as “facilitate OL differentiation; also recorded: significant OL differentiation”. The “OL differentiation in cultures” value in assay [2] is reported as “facilitate OL differentiation”.
As for `CN1[C@@H]2CC[C@H]1C[C@@H](OC(c1ccccc1)c1ccccc1)C2` [benztropine], in assay [1], the “myelination … (in words)” value is on record as “little to no activity; also recorded: no effect on myelination; also recorded: did not promote myelination”. In addition, in assay [3], the “OL differentiation of purified OPCs (in words)” value is reported as “facilitate OL differentiation; also recorded: significant OL differentiation”. In assay [2], the “OL differentiation in cultures” value is on record as “facilitate OL differentiation”.
Molecule `C[C@H]1[C@H](OC(=O)CCC(=O)O)O[C@@H]2O[C@@]3(C)CC[C@H]4[C@H](C)CC[C@@H]1[C@@]24OO3` [Artesunate] returned an EC50 in assay [1] of 3.3 µM.
Turning to `C[C@H](NC(=O)Cc1cc(F)cc(F)c1)C(=O)N[C@H](C(=O)OC(C)(C)C)c1ccccc1` [DAPT, N-[N-(3,5-Difluorophenacetyl)-L-alanyl]-S-phenylglycine t-butyl ester], in assay [1], the “reduction of the number of Olig2+ cells” value is about 50% and the “myelination … (in words)” value was “significant dose-dependent increases in myelination”. In addition, the DAPT/DMSO myelination ratio in assay [1] (5 days NB/N21 and 8 days MyM plus test compound) stood at 7.7. Moreover, the “fiber/MBP score, typically observed” value in assay [1] (DAPT treated cultures) is over 1.5. Moreover, the “promotion of myelination, fold over DMSO” value in assay [1] (cultures without exogenously added OPCs) worked out at 1.76 fold over DMSO. In assay [1] (entire NCC library screen, plate controls), the “average DAPT/DMSO Fiber/MBP ratio” value was found to be 1.61.
For `COc1cc(CNC(=O)CCCC/C=C\C(C)C)ccc1O` [Zu-capsaicin], the EC50 in assay [1] came out at 4.7 µM.
Regarding `N=C(N)NC(=O)c1nc(Cl)c(N)nc1N` [Amiloride], the EC50 in assay [1] came to 8.9 µM.
Same read-out and setting: next, `C[C@H]1O[C@@H](O[C@H]2[C@@H](O)C[C@H](O[C@H]3[C@@H](O)C[C@H](O[C@H]4CC[C@@]5(C)[C@H](CC[C@@H]6[C@@H]5C[C@@H](O)[C@]5(C)[C@@H](C7=CC(=O)OC7)CC[C@]65O)C4)O[C@@H]3C)O[C@@H]2C)C[C@H](O)[C@@H]1O` [Digoxin]: 11.3 µM.
In the case of `C[C@H]1C[C@H]2[C@@H]3CCC4=CC(=O)C=C[C@]4(C)[C@@]3(F)[C@@H](O)C[C@]2(C)[C@@]1(O)C(=O)CCl` [clobetasol], in assay [1], the “myelination … (in words)” value is “no effect on myelination”. Besides, in assay [2], the “OL differentiation in cultures” value was “facilitate OL differentiation”.
Consider `O=c1[nH]c(=O)n(C2CCCO2)cc1F` (stereo not shown) [Tegafur], for which the EC50 in assay [1] came out at 2.7 µM.
Consider `COc1ccc(CC2c3cc(OC)c(OC)cc3CC[N+]2(C)CCC(=O)OCCCCCOC(=O)CC[N+]2(C)CCc3cc(OC)c(OC)cc3C2Cc2ccc(OC)c(OC)c2)cc1OC` (stereo not shown) [Atracurium Besylate], for which, in assay [1], the EC50 came out at 5.3 µM.
